The values below come from publication PMC6790247 (Journal of Insect Science, 2019).

Type in all cases: biochemical
Assay [1] concerns the target T1, nlGSTE (Nilaparvata lugens, UniProt J9Q4G5).
T1 sequence (J9Q4G5 1-217): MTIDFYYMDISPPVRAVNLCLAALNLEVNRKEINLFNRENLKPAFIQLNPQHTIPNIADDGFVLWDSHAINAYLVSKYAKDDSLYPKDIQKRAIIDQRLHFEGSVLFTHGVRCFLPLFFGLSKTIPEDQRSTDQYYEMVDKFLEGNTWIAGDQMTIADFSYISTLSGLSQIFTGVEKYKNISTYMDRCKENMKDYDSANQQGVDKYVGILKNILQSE
Nature of the assay: spectrophotometry at […] nm, double-reciprocal plot. The following applies: read-out: WT; 5 mM GSH, 20 mM Tris-HCl pH 8.0, 30 °C.

The target in assay [2] is T2, nlGSTE (Nilaparvata lugens, UniProt J9Q4G5, R112A).
T2 sequence (J9Q4G5 1-217 R112A): T1 sequence (J9Q4G5 1-217)
Nature of the assay: spectrophotometry at […] nm, double-reciprocal plot. The following applies: read-out: R112A; 5 mM GSH, 20 mM Tris-HCl pH 8.0, 30 °C.

The target of assay [3] is T3, nlGSTE (Nilaparvata lugens, UniProt J9Q4G5, F118L).
T3 sequence (J9Q4G5 1-217 F118L): T1 sequence (J9Q4G5 1-217)
Nature of the assay: spectrophotometry at […] nm, double-reciprocal plot. The following applies: read-out: F118L; 5 mM GSH, 20 mM Tris-HCl pH 8.0, 30 °C.

Assay [4] has as its target T4, nlGSTE (Nilaparvata lugens, UniProt J9Q4G5, F107A).
T4 sequence (J9Q4G5 1-217 F107A): T1 sequence (J9Q4G5 1-217)
Nature of the assay: spectrophotometry at […] nm, double-reciprocal plot. As to conditions: read-out: F107A; 5 mM GSH, 20 mM Tris-HCl pH 8.0, 30 °C.

Assay [5] addresses T5, nlGSTE (Nilaparvata lugens, UniProt J9Q4G5, F119A).
T5 sequence (J9Q4G5 1-217 F119A): T1 sequence (J9Q4G5 1-217)
Nature of the assay: spectrophotometry at […] nm, double-reciprocal plot. As to conditions: read-out: F119A; 5 mM GSH, 20 mM Tris-HCl pH 8.0, 30 °C.

The target of assay [6] is T1, nlGSTE. Nature of the assay: inhibition of CDNB conjugation, spectrophotometry. The following applies: substrates CDNB and GSH; several inhibitor concentrations.
In assay [7] the target is T1, nlGSTE. The assay can be described thus: inhibition of CDNB conjugation, spectrophotometry. The following applies: read-out: % remaining activity at 0.1 mM.

Regarding `O=[N+]([O-])c1ccc(Cl)c([N+](=O)[O-])c1` [CDNB, 1-chloro-2,4-dinitrobenzene], the Km at nlGSTE [1] amounted to 2.1 ± 0.165 mM; on nlGSTE [2] it was 8.7 ± 0.666 mM; on nlGSTE [3] it was 4.2 ± 0.865 mM; at nlGSTE [4], 3.1 ± 0.367 mM; at nlGSTE [5], 5 ± 0.575 mM.

As a reminder, the remaining activity is the signal under treatment as a percentage of the control signal. As for `CCOP(=S)(OCC)Oc1cc(C)nc(C(C)C)n1` [diazinon], the remaining activity entry on nlGSTE [6] was “nlGSTE activity was affected by permethrin, bendiocarb, diazinon, and chlorfenapyr”.

Take `CC1(C)C(C=C(Cl)Cl)C1C(=O)OCc1cccc(Oc2ccccc2)c1` (stereo not drawn) [permethrin]: the remaining activity result at nlGSTE [6] was “nlGSTE activity was affected by permethrin, bendiocarb, diazinon, and chlorfenapyr”.

With `CNC(=O)Oc1cccc2c1OC(C)(C)O2` [bendiocarb], the remaining activity at 100 µM at nlGSTE [7] stood at 36%.

In the case of `CCOCn1c(-c2ccc(Cl)cc2)c(C#N)c(Br)c1C(F)(F)F` [chlorfenapyr], on nlGSTE [7], the remaining activity at 100 µM turned out to be 84%.
